Measured values as given in US11351130B2, “Prevention and reversal of inflammation induced DNA damage” (Indiana University Research and Technology Corporation, priority 2017, dated 2022).

Assays:
[1] = system: sensory neuronal cultures; assay: phospho-H2AX immunoblotting in sensory neuronal cultures (Example 3); type: cell-based, rat; conditions: 20 μM for 48 hours prior to and throughout exposure to 10 μM cisplatin
Procedure: (§1) Primary cultures of sensory neurons were harvested and maintained as previously described (Vasko et al., 2005). Briefly, adult male Sprague-Dawley rats (150-175 g; Harlan, Indianapolis, Ind.) were euthanized by CO2 asphyxiation and dorsal root ganglia (DRG) dissected from all spinal levels, transferred to into a collagenase solution (1 mg/ml), incubated for 1 hour at 37° C., then dissociated by mechanical agitation. Approximately 30,000 cells or 60,000 cells were plated into each well of 12-well or 6-well culture plates, respectively. All culture dishes were precoated with poly-D-lysine and laminin. Cells were maintained in F-12 media supplemented with 10% horse serum, 2 mM glutamine, 100 μg/ml Normocin™, 50 μg/ml penicillin, 50 μg/ml streptomycin, 50 μM 5-fluoro-2′-deoxyuridine (Invitrogen), 150 μM uridine, and 30 ng/ml of NGF in 3% CO2 at 37° C. Growth medium was changed every other day. Experiments were performed after cells were maintained in culture for 12-14 days.
Immunoblotting was performed as previously described (Kelley et al., 2014). Briefly, cells were lysed in RIPA buffer (Santa Cruz Biotechnology; Santa Cruz, Calif., USA) and protein was quantified using the Lowey assay. Proteins were separated by electrophoresis on a 4-12% SDS-polyacrylamide gel. The gel was transferred to a PVDF membrane and incubated overnight at 4° C. in Tris-buffered saline containing 0.1% Tween-20 (TBST) and 5% nonfat dry milk while gently agitating. Mouse monoclonal antihuman Ape1 antibodies (1:500), mouse monoclonal anti-phospho H2AX antibodies (1:1000), or (3-Actin monoclonal antibody (1:1000) were added to the blocking solution and incubated overnight at room temperature while gently agitating. Antibody binding was detected following appropriate secondary antibody methods using chemiluminescence. The density of the bands was measured using QUALITYONE® software from Bio-Rad (Hercules, Calif.) and data expressed as density normalized to actin.

[2] = system: sensory neurons in culture; type: cell-based, rat; conditions: for effect on cisplatin-induced reduction in capsaicin-evoked CGRP release / CGRP release, drug alone: 10 μM; for effect on cisplatin-induced reduction in capsaicin-evoked CGRP release: 72 hour treatment, 10 μM cisplatin; for CGRP release, drug alone / capsaicin-stimulated release of CGRP, drug alone: 72 hours; for capsaicin-stimulated release of CGRP, drug alone: 20 μM
Procedure: as §1
For release experiments, cell cultures were washed with HEPES buffer consisting of (in mM) 25 HEPES, 135 NaCl, 3.5 KCl, 2.5 CaCl2, 1 MgCl2, 3.3 D-glucose, and 0.1% bovine serum albumin, pH 7.4 and maintained at 37° C. They then were incubated for successive 10-minute intervals with 0.4 ml of HEPES buffer alone (basal release), with buffer containing 30 nM capsaicin, then with buffer alone (to assess return to basal release). After each incubation, the buffer was removed and the amount of immunoreactive calcitonin-gene related peptide (CGRP) in each sample was measured using radioimmunoassay (RIA) as previously described (Chen et al., 1996). At the end of the release protocol, CGRP is extracted from the cultures and total content measured using RIA.

[3] = system: sensory neuronal cultures; assay: Neuronal cell viability (trypan blue exclusion); type: cell-based; conditions: for effect on cisplatin-induced cell death: 20 μM for 48 hours prior to and throughout the cisplatin treatment (24 hours); for cell viability, drug alone: 24 hours; for cell death, drug alone: 20 or 40 μM, 72 hours (data not shown)
Procedure: as §1
Sensory neuronal culture trypan blue exclusion analysis was performed as previously described (Vasko et al., 2011). Cells were detached by adding a 0.05% trypsin-EDTA solution and media to each well. An equal volume of 0.4% (w/v) trypan blue in PBS was added to the cell suspension and the numbers of living cells (i.e., those that exclude the dye) were counted under a phase contrast microscope using a hemacytometer. Percent survival was calculated as the percent of live cells divided by the total cell number (including dead and live cells).

APE1 [4] = biological target: T1, APE1 (Homo sapiens, UniProt P27695); assay: AP endonuclease DNA repair assay; type: biochemical; conditions: APX2009 in the nanomolar range
T1 sequence (P27695 whole entry, species assumed): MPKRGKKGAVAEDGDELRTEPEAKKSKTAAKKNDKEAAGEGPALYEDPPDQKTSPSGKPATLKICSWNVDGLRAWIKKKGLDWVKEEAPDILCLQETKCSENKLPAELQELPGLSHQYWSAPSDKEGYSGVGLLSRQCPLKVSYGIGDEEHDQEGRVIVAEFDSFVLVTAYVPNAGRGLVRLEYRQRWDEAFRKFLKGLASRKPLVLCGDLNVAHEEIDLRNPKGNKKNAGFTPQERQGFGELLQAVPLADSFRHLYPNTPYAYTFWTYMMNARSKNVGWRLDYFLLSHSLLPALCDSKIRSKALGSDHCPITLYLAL
Procedure: Inhibition or enhancement of APE1 DNA repair endonuclease activity was performed as previously described (Bapat et al., 2010). The APE1 repair activity assay was performed in a plate assay using two annealed oligonucleotides (5′-6-FAM-GCCCCC*[…]-3′ (SEQ ID NO:3) and 3′-Q-[…]-5′ (SEQ ID NO:4)) containing a quencher on one strand and a fluorescent 6-FAM label with tetrahydrofuran as an AP site mimic. Oligo cleavage at the AP mimic site results in 6-FAM release and detection. The fluorescence was read at five, one-minute intervals using a Tecan Ultra plate reader (Chemical Genomics Core, Indiana University School of Medicine). The rate of the reaction was used to determine the change in APE1 repair activity as compared to the vehicle control.

APE1 [5] = biological target: T1, APE1; assay: redox APE1 electrophoretic mobility shift assay (EMSA); type: biochemical; design: Purified APE1 was reduced with 1.0 mM DTT for 10 minutes; conditions: read-out: redox inhibition IC50
Procedure: EMSAs were performed as described (Luo et al., 2012). Purified APE1 was reduced with 1.0 mM DTT for 10 minutes and diluted to a final concentration of 0.006 mM with 0.02 mM DTT in PBS. Reduced APE1 was added to EMSA reaction buffer (10 mM Tris (pH 7.5), 50 mM NaCl, 1 mM MgCl2, 1 mM EDTA, 5% [vol/vol] glycerol) with […] 0.007 mM protein mixture (1:1) of purified truncated c-Jun and c-Fos proteins containing DNA-binding domain and leucine zipper and incubated for 30 minutes at room temperature. The EMSA assay was performed as previously described (Luo et al., 2008; Nyland et al., 2010; Kelley et al., 2011; Luo et al., 2012).

NFκB = assay: NF-κB luciferase reporter transactivation assay; type: cell-based; conditions: read-out: inhibition of NFκB binding to the reporter construct, IC50
Procedure: Reporter assays were performed as previously described (Georgiadis et al., 2008; Kelley et al., 2011; Cardoso et al., 2012b; Luo et al., 2012). Cells were transfected with NF-κB-Luciferase construct containing an NF-κB-response promoter and driving the expression of a luciferase gene and a Renilla luciferase control reporter vector pRL-CMV. After a 24-hour transfection period, cells were lysed, and Firefly and Renilla luciferase activities were assayed using Renilla luciferase activity for normalization. All of the transfection experiments were performed in triplicate and repeated at least three times in independent experiments. Data are expressed as mean±standard error from a representative experiment, and Student's t tests were performed.

SMILES | effect on cisplatin-induced pH2AX levels (DNA damage) [1] | effect on cisplatin-induced reduction in capsaicin-evoked CGRP release [2] | CGRP release, drug alone [2] | capsaicin-stimulated release of CGRP, drug alone [2] | effect on cisplatin-induced cell death [3] | cell viability, drug alone ([3]; 20 μM or 40 μM) | cell death, drug alone [3] | APE1 repair (endonuclease) activity (APE1 [4]) | IC50 (APE1 [5]) [µM] | IC50 (NFκB) [µM] | cell viability, drug alone ([3]; 40 μM)
COC1=C(/C=C(\C)C(=O)N(C)C)C(=O)c2ccccc2C1=O [APX2032] | neither APX2007 nor APX2032 (20 μM) altered the ability of cisplatin to produce DNA damage | did block the effect of cisplatin | did not affect CGRP release | significant increase in capsaicin-stimulated release | did not attenuate the cisplatin-induced cell death | significant reduction in cell viability | significant increase in cell death | no effect | 1 | 7 | –
CCC/C(=C\C1=C(OC)C(=O)c2ccccc2C1=O)C(=O)N(C)C [APX2007, (2E)-2-[(3-methoxy-1,4-dioxo-1,4-dihydronapthalen-2-yl)methylidene]-N,N-dimethylpentanamide] | neither APX2007 nor APX2032 (20 μM) altered the ability of cisplatin to produce DNA damage | did not prevent the cisplatin-induced reduction in release | did not affect CGRP release | significant increase in capsaicin-stimulated release | did not attenuate the cisplatin-induced cell death | – | significant increase in cell death | no effect | 2 | 7 | significant reduction in cell viability
